In ChEMBL document CHEMBL1201862, “PubChem BioAssay data set” (2004):
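Compound exposure: 48 hours, 5 concentrations, 96-well plates. Abbreviation: GI50, concentration required for 50% inhibition of growth.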 Calls of active or inactive are those of the source. Cut-off read from the data, not from the text of the source: active = GI50 up to about 1.1 µM and inactive = higher. Where a SMILES comes first, the peptide text is derived from it. Residues, ends and D or L forms follow the SMILES beside them. The star is where a group is joined. *: point of attachment. Ethyl(2-NMe3+) = C[N+](C)(C)CC*; Cbz = O=C(OCc1ccccc1)*; Boc = CC(C)(C)OC(=O)*; tBu = CC(C)(C)*

Assays:
Assay in all cases: NCI-60 cell line screen, 48 h
A498 = test system: A498
CAKI-1 = test system: CAKI-1
COLO 205 = test system: COLO 205
HCT-116 = test system: HCT-116
HOP-92 = test system: HOP-92
HT-29 = test system: HT-29
IGROV-1 = test system: IGROV-1
MDA-MB-435 = test system: MDA-MB-435
NCI-H226 = test system: NCI-H226
NCI-H522 = test system: NCI-H522
NCI/ADR-RES = test system: NCI/ADR-RES
OVCAR-8 = test system: OVCAR-8
SF-268 = test system: SF-268
SF-295 = test system: SF-295
SK-MEL-28 = test system: SK-MEL-28
SK-MEL-2 = test system: SK-MEL-2
SK-OV-3 = test system: SK-OV-3
T47D = test system: T47D
UACC-257 = test system: UACC-257
UACC-62 = test system: UACC-62

Row | Structure (SMILES) | GI50 (A498) | GI50 (CAKI-1) | GI50 (COLO 205) | GI50 (HCT-116) | GI50 (HOP-92) | GI50 (HT-29) | GI50 (IGROV-1) | GI50 (MDA-MB-435) | GI50 (NCI-H226) | GI50 (NCI-H522) | GI50 (NCI/ADR-RES) | GI50 (OVCAR-8) | GI50 (SF-268) | GI50 (SF-295) | GI50 (SK-MEL-28) | GI50 (SK-MEL-2) | GI50 (SK-OV-3) | GI50 (T47D) | GI50 (UACC-257) | GI50 (UACC-62)
1 | CC(NC(=O)C(Cc1ccc(OCC[N+](C)(C)C)cc1)NC(=O)OC(C)(C)C)C(=O)NC(Cc1ccccc1)C(=O)NCC(N)=O (stereo not given) (Boc-Y(Ethyl(2-NMe3+))AFG-NH2; configuration not given here) | 13.4 µM (inactive) | 87.1 µM (inactive) | 75.7 µM (inactive) | 34.9 µM (inactive) | 15.7 µM (inactive) | > 100 µM (inactive) | 20.1 µM (inactive) | > 100 µM (inactive) | 22.7 µM (inactive) | 36.9 µM (inactive) | 36.9 µM (inactive) | 12 µM (inactive) | 10.1 µM (inactive) | 3.8 µM (inactive) | > 100 µM (inactive) | 11.9 µM (inactive) | 10 µM (inactive) | 43.8 µM (inactive) | 45.2 µM (inactive) | 25.9 µM (inactive)
2 | CCOc1cc2c(cc1O)C(=O)C[C@@H]1[C@@H]2CC[C@]2(C)[C@@H](O)CC[C@@H]12 | 0.269 µM (active) | 0.164 µM (active) | 20.5 µM (inactive) | 0.144 µM (active) | 9.06 µM (inactive) | 6.87 µM (inactive) | 0.861 µM (active) | 0.0197 µM (active) | 0.561 µM (active) | 0.0508 µM (active) | 0.0955 µM (active) | 0.321 µM (active) | 0.308 µM (active) | 0.158 µM (active) | 0.19 µM (active) | 4.85 µM (inactive) | 0.463 µM (active) | 0.13 µM (active) | 1.21 µM (inactive) | 0.0682 µM (active)
3 | OC1(c2ccc(Cl)cc2)c2ccccc2C2=NCc3ccccc3CN21 (stereo not given) | 13.6 µM (inactive) | 12.3 µM (inactive) | 4.9 µM (inactive) | 6.62 µM (inactive) | 13.1 µM (inactive) | 14.7 µM (inactive) | 3.75 µM (inactive) | 7.45 µM (inactive) | 5.47 µM (inactive) | 14.1 µM (inactive) | 13.1 µM (inactive) | 9.55 µM (inactive) | 12.4 µM (inactive) | 15.3 µM (inactive) | 2.75 µM (inactive) | 1.2 µM (inactive) | 1.22 µM (inactive) | 23.3 µM (inactive) | 14.3 µM (inactive) | 13.6 µM (inactive)
4 | C=C(C)[C@@H]1CC[C@]2(C(=O)OC3OC(COC4OC(CO)C(OC5OC(C)C(O)C(O)C5O)C(O)C4O)C(O)C(O)C3O)CC[C@]3(C)[C@H](CC[C@@H]4[C@@]5(C)CC[C@H](O)[C@@](C)(CO)[C@@H]5CC[C@]43C)[C@@H]12 (stereo not given in full) | 2.48 µM (inactive) | 3.4 µM (inactive) | 1.63 µM (inactive) | 2.18 µM (inactive) | 3.1 µM (inactive) | 3.05 µM (inactive) | 2.74 µM (inactive) | 3.51 µM (inactive) | 3.16 µM (inactive) | 2.66 µM (inactive) | 2.91 µM (inactive) | 3.97 µM (inactive) | 2.93 µM (inactive) | 1.27 µM (inactive) | 5.79 µM (inactive) | 2.39 µM (inactive) | 3.24 µM (inactive) | 3.4 µM (inactive) | 4.63 µM (inactive) | 1.99 µM (inactive)
5 | N#Cc1nnc2c3c(-c4ccc(Cl)cc4)c(C#N)c(O)nc3nn2c1N | 2.77 µM (inactive) | 5.6 µM (inactive) | 11.7 µM (inactive) | 3.51 µM (inactive) | 5.2 µM (inactive) | 5 µM (inactive) | 2.61 µM (inactive) | 8.69 µM (inactive) | 9.55 µM (inactive) | 1.62 µM (inactive) | 18.4 µM (inactive) | 4.92 µM (inactive) | 3.26 µM (inactive) | 5.3 µM (inactive) | 11.9 µM (inactive) | 9.84 µM (inactive) | 4.61 µM (inactive) | 1.17 µM (inactive) | 15.4 µM (inactive) | 1.85 µM (inactive)
6 | COc1cccc([C@H]2CC(=O)c3cc4c(cc3N2)OCO4)c1 | 0.75 µM (active) | 0.384 µM (active) | 0.296 µM (active) | 0.352 µM (active) | 19.1 µM (inactive) | 0.194 µM (active) | 0.622 µM (active) | 0.0743 µM (active) | 0.263 µM (active) | 0.238 µM (active) | 0.296 µM (active) | 0.401 µM (active) | 0.646 µM (active) | 0.296 µM (active) | 4.82 µM (inactive) | 0.578 µM (active) | 0.419 µM (active) | > 100 µM (inactive) | 0.91 µM (active) | 0.406 µM (active)
7 | O=C1Nc2ccc(Br)cc2/C1=N/c1ccc2c(c1)OCO2 | 30.6 µM (inactive) | 20.3 µM (inactive) | 16.9 µM (inactive) | 17.4 µM (inactive) | 50.1 µM (inactive) | 17.4 µM (inactive) | 27.4 µM (inactive) | 9.35 µM (inactive) | 24.3 µM (inactive) | 19.1 µM (inactive) | 27.5 µM (inactive) | 32.5 µM (inactive) | 35.2 µM (inactive) | 24.8 µM (inactive) | 39 µM (inactive) | 17.7 µM (inactive) | 31.8 µM (inactive) | 35.9 µM (inactive) | 18.3 µM (inactive) | 15.7 µM (inactive)
8 | COc1oc(C(=O)NC2CCCCC2)c(-c2ccc(Cl)cc2)c1S(=O)(=O)c1ccccc1 | 2.15 µM (inactive) | 3.37 µM (inactive) | 15.5 µM (inactive) | 33.3 µM (inactive) | 1.5 µM (inactive) | 2.26 µM (inactive) | 1.82 µM (inactive) | 9.86 µM (inactive) | 52.2 µM (inactive) | 1.34 µM (inactive) | 2.76 µM (inactive) | 6.4 µM (inactive) | 3.46 µM (inactive) | 23.4 µM (inactive) | 49.3 µM (inactive) | 13.4 µM (inactive) | 25.6 µM (inactive) | 37.7 µM (inactive) | 11.8 µM (inactive) | 17.1 µM (inactive)
9 | CC(C)Cn1cnc2c(Cl)nc3ccccc3c21 | 33.9 µM (inactive) | 45.8 µM (inactive) | 33.7 µM (inactive) | 34.4 µM (inactive) | 21.8 µM (inactive) | 46 µM (inactive) | 31.9 µM (inactive) | 53.2 µM (inactive) | 40 µM (inactive) | 50.9 µM (inactive) | 61.2 µM (inactive) | 58.9 µM (inactive) | 57.3 µM (inactive) | 72.6 µM (inactive) | > 100 µM (inactive) | > 100 µM (inactive) | > 100 µM (inactive) | 77.1 µM (inactive) | > 100 µM (inactive) | 40.9 µM (inactive)
10 | COC(=O)[C@]12CCC(C)(C)C[C@H]1[C@H]1C(=O)C=C3[C@@]4(C)C=C(C#N)C(=O)C(C)(C)[C@@H]4CC[C@@]3(C)[C@]1(C)CC2 [BARDOXOLONE METHYL] | 0.046 µM (active) | 0.0273 µM (active) | 0.0199 µM (active) | 0.0131 µM (active) | 0.0769 µM (active) | 0.0552 µM (active) | 0.0405 µM (active) | 0.0164 µM (active) | 0.0346 µM (active) | 0.0728 µM (active) | 0.0188 µM (active) | 0.0199 µM (active) | 0.0238 µM (active) | 0.0289 µM (active) | 0.0759 µM (active) | 0.027 µM (active) | 0.126 µM (active) | 0.0288 µM (active) | 0.0455 µM (active) | 0.0145 µM (active)
11 | CC(OC(C)(C)C)C(NC(=O)C(CCCCNC(=O)OC(C)(C)C)NC(=O)C(Cc1c[nH]c2ccccc12)NC(=O)C(Cc1ccccc1)NC(=O)OCc1ccccc1)C(=O)NC(Cc1ccccc1)C(=O)O (stereo not given) (Cbz-FWK(Boc)T(tBu)F-OH; configuration not given here) | > 100 µM (inactive) | > 100 µM (inactive) | 36.9 µM (inactive) | 36.6 µM (inactive) | > 100 µM (inactive) | 33.5 µM (inactive) | 31 µM (inactive) | 40.5 µM (inactive) | 37.3 µM (inactive) | 27.9 µM (inactive) | > 100 µM (inactive) | 95.1 µM (inactive) | 45.7 µM (inactive) | 76.7 µM (inactive) | 57.8 µM (inactive) | 41.7 µM (inactive) | 39.5 µM (inactive) | 28.4 µM (inactive) | > 100 µM (inactive) | 21 µM (inactive)
12 | N#CSc1ccc(S(N)(=O)=O)cc1 | > 100 µM (inactive) | 56.5 µM (inactive) | 71.1 µM (inactive) | 44.5 µM (inactive) | > 100 µM (inactive) | 82 µM (inactive) | 49.7 µM (inactive) | 33.3 µM (inactive) | > 100 µM (inactive) | 10.7 µM (inactive) | > 100 µM (inactive) | 44.8 µM (inactive) | > 100 µM (inactive) | > 100 µM (inactive) | 76.7 µM (inactive) | 46.5 µM (inactive) | > 100 µM (inactive) | 31.8 µM (inactive) | > 100 µM (inactive) | 70 µM (inactive)
13 | CC(=O)OC1COC(n2c(-c3ccc(Cl)cc3)cc(-c3ccccc3)c(C#N)c2=S)C(OC(C)=O)C1OC(C)=O (stereo not given) | 17.4 µM (inactive) | 19.7 µM (inactive) | 18.3 µM (inactive) | 5.52 µM (inactive) | 12.9 µM (inactive) | 26.2 µM (inactive) | 18.2 µM (inactive) | 7.19 µM (inactive) | 16.3 µM (inactive) | 40.5 µM (inactive) | 14.1 µM (inactive) | 5.06 µM (inactive) | 9.44 µM (inactive) | 14.7 µM (inactive) | > 28.9 µM (inactive) | 12 µM (inactive) | 28.2 µM (inactive) | 14.1 µM (inactive) | 41.6 µM (inactive) | 19.1 µM (inactive)
